In patent publication US20040176350A1, “Carbapenem compound” (priority 2001, published 2004):

Test: oral absorption test in rats: plasma concentration of meropenem produced by hydrolysis, by HPLC
Type: in vivo
Conditions: 20 mg/kg oral, cilastatin 50 mg/kg pre-administered
Experimental: An enzyme inhibitor (cilastatin) (50 mg/kg) was pre-administered to rats (3 per group) and the compound of the present invention (compound of Example 1, 20 mg/kg) was orally administered. The plasma concentration of meropenem produced by hydrolysis was measure at 0.125, 0.25, 0.5, 1.0, 1.5, 2.0 and 3.0 hr by HPLC and the area under plasma concentration-time curve (AUC) was determined.

With `CCCC(=O)OCOC(=O)N1C[C@@H](SC2=C(C(=O)OCOC(=O)C(C)(C)C)N3C(=O)[C@H]([C@@H](C)O)[C@H]3[C@H]2C)C[C@H]1C(=O)N(C)C` [Example 1, pivaloyloxymethyl (1R,5S,6S)-2-[(3S,5S)-(5-N,N-dimethylaminocarbonyl-1-butyryloxymethyloxycarbonyl)-pyrrolidin-3-ylthio]-6-[(1R)-1-hydroxyethyl]-1-methylcarbapen-2-em-3-carboxylate] the AUC0-3 hr (area under plasma concentration-time curve of meropenem) was 5060 ng·h/mL, the Average plasma concentration (meropenem in plasma at 0.125 hr) was 0.62 µg/mL and the Average plasma concentration (meropenem in plasma at 0.25 hr) was 1.31 µg/mL. For the same molecule, the Average plasma concentration (meropenem in plasma at 0.5 hr) was 2.31 µg/mL, the Average plasma concentration (meropenem in plasma at 1.0 hr) was 2.59 µg/mL and the Average plasma concentration (meropenem in plasma at 1.5 hr) was 2.27 µg/mL. For the same molecule, the Average plasma concentration (meropenem in plasma at 2.0 hr) was 1.56 µg/mL and the Average plasma concentration (meropenem in plasma at 3.0 hr) was 0.55 µg/mL.
